How the values were obtained:
[1] = The drug is tested on Z-027 corresponding to metagenome with ENA study accession number: PRJEB37062 and ENA sample accession number: ERS12561826 for biotransformation under anaerobic condition. The drug concentrations were measured over 9 timepoints collected between 0 and 24 hours of incubation by liquid-chromatography-coupled mass spectrometry (LC–MS); conditions: 2 µM
[2] = The drug is tested on Z-021 corresponding to metagenome with ENA study accession number: PRJEB37062 and ENA sample accession number: ERS12561820 for biotransformation under anaerobic condition. The drug concentrations were measured over 9 timepoints collected between 0 and 24 hours of incubation by liquid-chromatography-coupled mass spectrometry (LC–MS); conditions: 2 µM
[3] = The drug is tested on Z-016 corresponding to mouse gut metagenome with ENA study accession number: PRJEB37062 and ENA sample accession number: ERS12561815 for biotransformation under anaerobic condition. The drug concentrations were measured over 9 timepoints collected between 0 and 24 hours of incubation by liquid-chromatography-coupled mass spectrometry (LC–MS); conditions: 2 µM
[4] = The drug is tested on Z-005 corresponding to metagenome with ENA study accession number: PRJEB37062 and ENA sample accession number: ERS12561805 for biotransformation under anaerobic condition. The drug concentrations were measured over 9 timepoints collected between 0 and 24 hours of incubation by liquid-chromatography-coupled mass spectrometry (LC–MS); conditions: 2 µM
[5] = The drug is tested on Z-004 corresponding to metagenome with ENA study accession number: PRJEB37062 and ENA sample accession number: ERS12561804 for biotransformation under anaerobic condition. The drug concentrations were measured over 9 timepoints collected between 0 and 24 hours of incubation by liquid-chromatography-coupled mass spectrometry (LC–MS); conditions: 2 µM
[6] = The drug is tested on WLS-350 corresponding to human gut metagenome with ENA study accession number: PRJEB37062 and ENA sample accession number: ERS12561789 for biotransformation under anaerobic condition. The drug concentrations were measured over 9 timepoints collected between 0 and 24 hours of incubation by liquid-chromatography-coupled mass spectrometry (LC–MS); conditions: 2 µM
[7] = The drug is tested on WLS-082 corresponding to human gut metagenome with ENA study accession number: PRJEB37062 and ENA sample accession number: ERS12561751 for biotransformation under anaerobic condition. The drug concentrations were measured over 9 timepoints collected between 0 and 24 hours of incubation by liquid-chromatography-coupled mass spectrometry (LC–MS); conditions: 2 µM
[8] = The drug is tested on WLS-027 corresponding to human gut metagenome with ENA study accession number: PRJEB37062 and ENA sample accession number: ERS12561744 for biotransformation under anaerobic condition. The drug concentrations were measured over 9 timepoints collected between 0 and 24 hours of incubation by liquid-chromatography-coupled mass spectrometry (LC–MS); conditions: 2 µM
[9] = The drug is tested on WLS-007 corresponding to human gut metagenome with ENA study accession number: PRJEB37062 and ENA sample accession number: ERS12561742 for biotransformation under anaerobic condition. The drug concentrations were measured over 9 timepoints collected between 0 and 24 hours of incubation by liquid-chromatography-coupled mass spectrometry (LC–MS); conditions: 2 µM
[10] = human gut metagenome, 24 h, 2 µM
[11] = human gut metagenome, 24 h, 2 µM; remark: listed apart in the source
[12] = human gut metagenome, 24 h, 2 µM; remark: listed apart in the source
[13] = human gut metagenome, 24 h, 2 µM; remark: listed apart in the source
[14] = human gut metagenome, 24 h, 2 µM; remark: listed apart in the source
[15] = human gut metagenome, 24 h, 2 µM; remark: listed apart in the source
[16] = human gut metagenome, 24 h, 2 µM; remark: listed apart in the source
[17] = human gut metagenome, 24 h, 2 µM; remark: listed apart in the source
[18] = human gut metagenome, 24 h, 2 µM; remark: listed apart in the source
[19] = human gut metagenome, 24 h, 2 µM; remark: listed apart in the source
[20] = human gut metagenome, 24 h, 2 µM; remark: listed apart in the source
Further: call rule not given here.

Row | SMILES | Bacterial Biotransformation [1] | Bacterial Biotransformation [2] | Bacterial Biotransformation [3] | Bacterial Biotransformation [4] | Bacterial Biotransformation [5] | Bacterial Biotransformation [6] | Bacterial Biotransformation [7] | Bacterial Biotransformation [8] | Bacterial Biotransformation [9] | Bacterial Biotransformation [10] | Bacterial Biotransformation [11] | Bacterial Biotransformation [12] | Bacterial Biotransformation [13] | Bacterial Biotransformation [14] | Bacterial Biotransformation [15] | Bacterial Biotransformation [16] | Bacterial Biotransformation [17] | Bacterial Biotransformation [18] | Bacterial Biotransformation [19] | Bacterial Biotransformation [20]
1 | O=C(NC(Cc1cc(=O)[nH]c2ccccc12)C(=O)O)c1ccc(Cl)cc1 (stereo not given) [REBAMIPIDE] | Compound NOT metabolized | Compound metabolized | Compound NOT metabolized | Compound NOT metabolized | Compound NOT metabolized | Compound NOT metabolized | Compound NOT metabolized | Compound NOT metabolized | Compound NOT metabolized | Compound NOT metabolized | Compound NOT metabolized | Compound metabolized | Compound NOT metabolized | Compound NOT metabolized | Compound NOT metabolized | Compound NOT metabolized | Compound NOT metabolized | Compound metabolized | Compound NOT metabolized | Compound NOT metabolized
2 | CCOc1cc(CC(=O)N[C@@H](CC(C)C)c2ccccc2N2CCCCC2)ccc1C(=O)O [REPAGLINIDE] | Compound metabolized | Compound metabolized | Compound metabolized | Compound metabolized | Compound metabolized | Compound metabolized | Compound metabolized | Compound metabolized | Compound metabolized | Compound metabolized | Compound metabolized | Compound metabolized | Compound metabolized | Compound metabolized | Compound metabolized | Compound metabolized | Compound NOT metabolized | Compound NOT metabolized | Compound metabolized | Compound metabolized
3 | CC(N)C12CC3CC(CC(C3)C1)C2 (stereo not given) [RIMANTADINE] | Compound NOT metabolized | Compound NOT metabolized | Compound NOT metabolized | Compound NOT metabolized | Compound NOT metabolized | Compound NOT metabolized | Compound NOT metabolized | Compound NOT metabolized | Compound NOT metabolized | Compound NOT metabolized | Compound NOT metabolized | Compound NOT metabolized | Compound NOT metabolized | Compound NOT metabolized | Compound NOT metabolized | Compound NOT metabolized | Compound NOT metabolized | Compound NOT metabolized | Compound NOT metabolized | Compound NOT metabolized
4 | CCN(C)C(=O)Oc1cccc([C@H](C)N(C)C)c1.O=C(O)C(O)C(O)C(=O)O [RIVASTIGMINE TARTRATE] | Compound NOT metabolized | Compound NOT metabolized | Compound NOT metabolized | Compound NOT metabolized | Compound NOT metabolized | Compound NOT metabolized | Compound NOT metabolized | Compound NOT metabolized | Compound NOT metabolized | Compound NOT metabolized | Compound NOT metabolized | Compound NOT metabolized | Compound NOT metabolized | Compound NOT metabolized | Compound NOT metabolized | Compound NOT metabolized | Compound metabolized | Compound NOT metabolized | Compound NOT metabolized | Compound NOT metabolized
5 | CCCN(CCC)CCc1cccc2c1CC(=O)N2 [ROPINIROLE] | Compound NOT metabolized | Compound NOT metabolized | Compound NOT metabolized | Compound NOT metabolized | Compound NOT metabolized | Compound NOT metabolized | Compound NOT metabolized | Compound NOT metabolized | Compound NOT metabolized | Compound NOT metabolized | Compound NOT metabolized | Compound NOT metabolized | Compound NOT metabolized | Compound NOT metabolized | Compound NOT metabolized | Compound metabolized | Compound NOT metabolized | Compound NOT metabolized | Compound metabolized | Compound metabolized

— ChEMBL document CHEMBL5724914, “Linking interpersonal differences in gut microbiota composition and drug biotransformation activity” (2024)
